# Data taken from publication PMC11459967 (Antimicrobial Agents and Chemotherapy, 2024).
# What was measured:
# SARS-CoV-2 Mpro = SARS-CoV-2 Mpro (Severe acute respiratory syndrome coronavirus 2, UniProt P0DTC1); test: biochemical; type: biochemical
# [1] = tested on: SARS-CoV-2 (USA-WA1/2020 variant); test: Cytopathic effect (CPE) live virus cell viability assay in Vero-E6 cells; type: cell-based; conditions: for EC50: Severe acute respiratory syndrome coronavirus 2, Vero C1008, 96 h, read-out: EC50 viral CPE assay
SMILES,IC50 (SARS-CoV-2 Mpro) [nM],EC50 [1] [µM],further results
"CC(C)C[C@H](NC(=O)OCc1ccccc1)C(=O)N[C@@H](C[C@@H]1CCNC1=O)C(O)S(=O)(=O)O (some centres unmarked) [GC-376, reference compound]",18 ± 1.5,1.8 ± 0.4,time to achieve maximum inhibition (SARS-CoV-2 Mpro; Mpro enzymatic assay): ≤ 10 min
O=C(CN1C(=O)[C@@H](NC(=O)c2ccc3ccccc3n2)COc2ccccc21)N[C@@H](C[C@@H]1CCNC1=O)C(=O)COC(=O)c1c(Cl)cccc1Cl [Compound 20],580 ± 40,44.5 ± 7.4,
O=C(CN1C(=O)C(NC(=O)OCc2ccccc2)COc2ccccc21)NC(CC1CCNC1=O)C(=O)COC(=O)c1c(Cl)cccc1Cl (centres unmarked) [Compound 1],230 ± 18,7.5 ± 2,"fold less potent (Mpro) than compound 18 (SARS-CoV-2 Mpro; ratio of Mpro IC50 versus Pfizer lead compound 18): ~ 20 fold; fold reduced in activity compared to 18 [1]: 2.2 fold; fold reduced in activity compared to GC-376 [1]: 4.1 fold; inhibition at 5 µM ([1]; Severe acute respiratory syndrome coronavirus 2, Vero C1008, single treatment, 5 µM of 1, 96 h, three independent experiments, read-out: inhibition of CPE in infected cells): 19.5 ± 13.7%"
"COc1cccc2[nH]c(C(=O)N[C@@H](CC(C)C)C(=O)N[C@@H](C[C@@H]3CCNC3=O)C(=O)COC(=O)c3c(Cl)cccc3Cl)cc12 [Compound 18, reference compound]",11 ± 0.7,3.4 ± 1.4,
"CCC(CC)COC(=O)[C@H](C)N[P@](=O)(OC[C@H]1O[C@@](C#N)(c2ccc3c(N)ncnn23)[C@H](O)[C@@H]1O)Oc1ccccc1 [Remdesivir, reference compound]",,2.7 ± 0.5,"inhibition at 1 µM ([1]; Severe acute respiratory syndrome coronavirus 2, Vero C1008, single treatment, 1 µM of remdesivir, 96 h, three independent experiments, read-out: inhibition of CPE in infected cells): 3.6 ± 3.1%"
O=C(CN1C(=O)[C@@H](NC(=O)c2ccccc2)COc2ccccc21)N[C@@H](C[C@@H]1CCNC1=O)C(=O)COC(=O)c1c(Cl)cccc1Cl [Compound 19],620 ± 48,25 ± 5,
O=C(CN1C(=O)[C@@H](NC(=O)OCc2ccccc2)COc2ccccc21)N[C@@H](C[C@@H]1CCNC1=O)C(=O)COc1cc(C(F)(F)F)nn1-c1ccc(F)cc1 [Compound 21],3100,73.5 ± 12.4,fold less Mpro activity compared to 1 (SARS-CoV-2 Mpro; ratio of Mpro IC50 versus compound 1): more than 10 fold
